Common to all, as to assay: Cysteine liganding, probe competition
Format in all cases: binding

Experiment [1] deals with T1, HIST1H3J Histone H3.1 (Homo sapiens, UniProt P68431).
T1 construct: Cells were resuspended in cold PBS on ice and sonicated with a probe sonicator to achieve lysis; endogenous in cells
The settings on record: for Liganded: HIST1H3J Res# 111, uniprot P68431. In short, it runs like this:
(§1)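 Steps: sonicate cells in cold PBS; treat 5 mg/ml lysate with compound (25° C, 1 hr); add desthiobiotin iodoacetamide probe from a 10 mM stock (25° C, 1 hr); precipitate, reduce, alkylate, digest with trypsin; capture labelled peptides on streptavidin for analysis.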

For experiment [2], the target named is T2, FASN Fatty acid synthase (Homo sapiens, UniProt P49327).
T2 construct: 200 μL of lysate containing 5 mg/ml proteome was treated with 2 μL of 100× compound stock; endogenous in cells
In a few lines: as §1

Experiment [3] deals with T3, FBXO30 F-box only protein 30 (Homo sapiens, UniProt Q8TB52).
T3 construct: Cells were resuspended in cold PBS on ice and sonicated with a probe sonicator to achieve lysis; endogenous in cells
T3 sequence (Q8TB52 1-745): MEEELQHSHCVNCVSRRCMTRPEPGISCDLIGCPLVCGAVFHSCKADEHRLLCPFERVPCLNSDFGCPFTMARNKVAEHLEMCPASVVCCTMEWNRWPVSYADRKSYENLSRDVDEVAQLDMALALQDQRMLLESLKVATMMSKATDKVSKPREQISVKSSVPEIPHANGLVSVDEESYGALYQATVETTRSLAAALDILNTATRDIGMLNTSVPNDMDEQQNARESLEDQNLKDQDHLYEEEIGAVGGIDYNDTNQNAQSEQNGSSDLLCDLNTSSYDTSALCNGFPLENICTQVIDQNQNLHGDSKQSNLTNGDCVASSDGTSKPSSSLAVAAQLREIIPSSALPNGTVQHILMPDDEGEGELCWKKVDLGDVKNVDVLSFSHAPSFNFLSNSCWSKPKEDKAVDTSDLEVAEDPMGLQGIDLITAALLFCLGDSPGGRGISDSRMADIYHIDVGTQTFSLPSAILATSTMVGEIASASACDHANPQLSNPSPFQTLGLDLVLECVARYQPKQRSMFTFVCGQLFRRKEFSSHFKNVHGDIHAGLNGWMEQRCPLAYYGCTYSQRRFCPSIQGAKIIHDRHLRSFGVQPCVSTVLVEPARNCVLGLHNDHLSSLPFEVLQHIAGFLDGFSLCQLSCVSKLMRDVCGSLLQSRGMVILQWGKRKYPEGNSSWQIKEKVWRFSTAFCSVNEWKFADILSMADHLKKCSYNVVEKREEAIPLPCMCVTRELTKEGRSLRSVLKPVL
In a few lines: as §1

In experiment [4] the target is T4, UBR5 E3 ubiquitin-protein ligase UBR5 (Homo sapiens, UniProt O95071).
T4 construct: Cells were resuspended in cold PBS on ice and sonicated with a probe sonicator to achieve lysis; endogenous in cells
In a few lines:
as §1

T2 sequence (P49327 whole entry): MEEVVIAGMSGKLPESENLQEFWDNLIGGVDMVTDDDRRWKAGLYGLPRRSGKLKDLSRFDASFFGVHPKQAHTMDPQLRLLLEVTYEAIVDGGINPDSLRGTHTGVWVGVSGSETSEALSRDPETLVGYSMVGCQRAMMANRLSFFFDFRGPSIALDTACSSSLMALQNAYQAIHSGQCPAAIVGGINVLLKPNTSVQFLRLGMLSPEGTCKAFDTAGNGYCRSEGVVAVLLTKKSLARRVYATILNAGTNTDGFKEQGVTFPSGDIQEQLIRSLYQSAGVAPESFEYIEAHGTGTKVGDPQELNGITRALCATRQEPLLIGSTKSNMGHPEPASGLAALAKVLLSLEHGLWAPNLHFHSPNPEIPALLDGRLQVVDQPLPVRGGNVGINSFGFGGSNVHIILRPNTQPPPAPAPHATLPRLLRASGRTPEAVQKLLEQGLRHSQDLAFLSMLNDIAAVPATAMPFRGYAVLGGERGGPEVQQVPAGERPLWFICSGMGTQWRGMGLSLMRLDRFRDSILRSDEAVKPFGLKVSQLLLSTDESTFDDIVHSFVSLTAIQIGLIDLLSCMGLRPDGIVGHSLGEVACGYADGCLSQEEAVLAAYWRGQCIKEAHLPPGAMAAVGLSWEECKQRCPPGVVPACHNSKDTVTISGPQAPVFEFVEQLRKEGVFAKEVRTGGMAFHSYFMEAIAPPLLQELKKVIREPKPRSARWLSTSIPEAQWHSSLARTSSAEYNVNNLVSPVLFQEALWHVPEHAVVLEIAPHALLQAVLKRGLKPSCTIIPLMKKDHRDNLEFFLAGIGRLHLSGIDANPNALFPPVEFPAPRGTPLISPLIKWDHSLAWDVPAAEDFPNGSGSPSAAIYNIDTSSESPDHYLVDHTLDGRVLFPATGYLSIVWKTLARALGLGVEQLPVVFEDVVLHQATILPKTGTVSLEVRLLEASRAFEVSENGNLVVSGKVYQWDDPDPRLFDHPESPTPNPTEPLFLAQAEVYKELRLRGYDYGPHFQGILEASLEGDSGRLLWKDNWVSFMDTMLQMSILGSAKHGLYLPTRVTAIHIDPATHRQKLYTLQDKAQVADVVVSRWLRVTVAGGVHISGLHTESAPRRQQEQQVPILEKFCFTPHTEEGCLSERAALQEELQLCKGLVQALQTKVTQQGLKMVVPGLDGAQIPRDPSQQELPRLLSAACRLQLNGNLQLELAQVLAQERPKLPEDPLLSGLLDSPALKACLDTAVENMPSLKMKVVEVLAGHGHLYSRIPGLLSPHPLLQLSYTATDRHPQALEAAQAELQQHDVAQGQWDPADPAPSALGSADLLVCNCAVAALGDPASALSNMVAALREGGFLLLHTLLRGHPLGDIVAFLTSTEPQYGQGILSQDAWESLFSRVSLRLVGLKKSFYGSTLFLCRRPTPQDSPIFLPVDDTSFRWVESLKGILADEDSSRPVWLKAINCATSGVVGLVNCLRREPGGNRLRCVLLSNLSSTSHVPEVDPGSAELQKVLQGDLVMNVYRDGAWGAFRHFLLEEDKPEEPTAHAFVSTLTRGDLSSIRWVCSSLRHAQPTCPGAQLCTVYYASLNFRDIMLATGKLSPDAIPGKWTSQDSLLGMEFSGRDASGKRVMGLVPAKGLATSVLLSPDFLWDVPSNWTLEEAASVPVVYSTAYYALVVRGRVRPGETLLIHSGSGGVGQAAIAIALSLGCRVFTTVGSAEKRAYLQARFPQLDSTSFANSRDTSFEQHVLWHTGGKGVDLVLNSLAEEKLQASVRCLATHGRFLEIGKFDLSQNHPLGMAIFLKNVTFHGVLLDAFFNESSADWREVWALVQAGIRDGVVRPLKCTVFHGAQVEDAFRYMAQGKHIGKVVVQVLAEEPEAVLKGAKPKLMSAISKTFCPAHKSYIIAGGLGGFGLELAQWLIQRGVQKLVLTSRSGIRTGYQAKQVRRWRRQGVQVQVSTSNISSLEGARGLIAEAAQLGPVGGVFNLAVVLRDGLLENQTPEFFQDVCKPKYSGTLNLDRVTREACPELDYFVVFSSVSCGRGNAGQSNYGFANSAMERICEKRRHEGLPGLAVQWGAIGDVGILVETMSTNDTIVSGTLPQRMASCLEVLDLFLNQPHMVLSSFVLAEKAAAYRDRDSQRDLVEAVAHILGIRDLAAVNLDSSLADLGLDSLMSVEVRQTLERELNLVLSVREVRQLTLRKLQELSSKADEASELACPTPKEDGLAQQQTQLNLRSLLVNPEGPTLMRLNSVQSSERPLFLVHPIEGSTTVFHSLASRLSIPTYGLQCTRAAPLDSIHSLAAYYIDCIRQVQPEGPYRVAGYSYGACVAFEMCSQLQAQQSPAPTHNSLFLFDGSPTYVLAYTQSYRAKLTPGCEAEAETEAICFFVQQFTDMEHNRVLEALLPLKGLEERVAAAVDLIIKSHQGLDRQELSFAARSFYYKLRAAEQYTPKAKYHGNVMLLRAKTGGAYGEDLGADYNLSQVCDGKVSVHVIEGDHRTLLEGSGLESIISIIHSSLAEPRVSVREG

As to `O=C(CCl)Nc1cc(C(F)(F)F)cc(C(F)(F)F)c1` [KBO3], the Liganded result in experiment [1] was “YES”. For the same compound, the 100 ave in experiment [1] (uniprot P68431) is reported as 22.28; in experiment [2] (uniprot P49327) it was −26.25; in experiment [3] (uniprot Q8TB52) it was 4.3; in experiment [4] (uniprot O95071), −2.4. Besides, the “500 Max” value in experiment [1] (uniprot P68431) was found to be 79.39; in experiment [3] (uniprot Q8TB52, unit assumed), 39.5%; in experiment [4] (uniprot O95071), 33.0. In addition, the 500 ave was found to be 79.39 in experiment [1] (uniprot P68431), 25.0 in experiment [3] (uniprot Q8TB52) and 26.8 in experiment [4] (uniprot O95071). Also, the “100 Max” value in experiment [1] (uniprot P68431, in % (unit assumed)) was 50.87; in experiment [2] (uniprot P49327) it was −26.25; in experiment [3] (uniprot Q8TB52), 10.4; in experiment [4] (uniprot O95071, unit assumed), 9.2%.

With `COc1ccc2c(c1)CCCN2C(=O)CCl` [KB02], the Liganded entry in experiment [1] was “YES”; in experiment [2] (FASN Res# 161, uniprot P49327), “YES”; in experiment [3] (FBXO30 Res# 725, uniprot Q8TB52) it was “YES”; in experiment [4] (UBR5 Res# 2314, uniprot O95071), “YES”.
